Converted amounts (≈) assume the structure as drawn.
Tests used:
KRAS^G12V-GppNHp = target: T1, KRAS^G12V-GppNHp (Homo sapiens, UniProt P01116, G12V); experiment: SPR binding to KRAS G12V-GppNHp; conditions: 100 μM, run in triplicate
T1 construct: made in house; host or cells: E. coli (pGEX-2T; strain named only for the HRAS plasmids)
Experimental: A BIAcore T100 (GE Healthcare) was used to screen the fragment library for RAS binders. A polyclonal goat anti-GST antibody (GE Healthcare) was immobilized on a CM5 sensor chip (GE Healthcare) by the amine coupling method. To immobilize the antibody on CM5 chip, the chip was first activated by injecting 100 µl mixture of 0.2 M EDC (N-ethyl-N-(dimethylaminopropyl) carbodiimide hydrochloride) and 0.05 M NHS (N-hydroxysuccinimide) at 10 µl/min flow rate. Furthermore, 100 µg/ml anti-GST antibody in 10 mM sodium acetate, pH 5.0 was injected at 5 µl/min for 900 s and immobilized until 20,000 ~ 25,000 RU. After immobilization the chip was immediately inactivated by injecting 1 M ethanolamine, pH 8.5 at 10 µl/min for 600 s. The chip was kept running in the HBS buffer (GE Healthcare) comprising 10 mM HEPES, pH 8.0, 150 mM NaCl. Of all, 5 µg/ml recombinant GST, GST-HRAS^G12V-GTPγS or GST-HRAS^G12V-GDP proteins were injected into flow cell Fc4, Fc2 and Fc3, respectively for trapping through the immobilized anti-GST antibody. The GST-HRAS^G12V-GTPγS, GST-KRAS^G12V-GppNHpp, or GST-HRAS^G12V-GDP proteins were injected at 5 µl/min for 900 s and usually reached approximately 2000–2500 RU. The GST was injected at same flow rate until about 1200–1350 RU which is 0.54 times less than the GST-HRAS^G12V-GTPγS or GST-HRAS-GDP capture amounts, taking into consideration relative molecular weights (GST, 26KDa, GST-RAS, 48KDa, respectively). Before fragment library screening, the running buffer was replaced by 20 mM Tris, pH 8, 150 mM NaCl, 5 mM MgCl2, 5% DMSO. DMSO solvent correction curves were generated by injecting the running buffers with serial concentrations of DMSO ranging from 4.5 to 6%. […] The individual compounds were injected at 30 µl for 60 s at 30 µl/min flow rate over flow cells Fc1, Fc2, Fc3 and Fc4. The captured GST and GST-RAS were removed from the chip by rinsing with 40 µl 10 mM glycine-HCl, pH 2.1 at 20 µl/min flow rate after every 48 compounds sequential injection. The chip was regenerated by injecting new GST and GST-RAS proteins as described above.

GST-HRAS^G12V-GTPγS = target: T2, GST-HRAS^G12V-GTPγS (Homo sapiens, UniProt P01112, G12V); experiment: SPR binding to immobilized GST-HRAS G12V-GTPγS
T2 construct: expression of HRAS (1-166) HRAS^G12V or KRAS^G12V cDNA cloned into the pGEX-2T vector; made in house; host or cells: E. coli C41(DE3)
Experimental: (§1) A BIAcore T100 (GE Healthcare) was used to screen the fragment library for RAS binders. A polyclonal goat anti-GST antibody (GE Healthcare) was immobilized on a CM5 sensor chip (GE Healthcare) by the amine coupling method. To immobilize the antibody on CM5 chip, the chip was first activated by injecting 100 µl mixture of 0.2 M EDC (N-ethyl-N-(dimethylaminopropyl) carbodiimide hydrochloride) and 0.05 M NHS (N-hydroxysuccinimide) at 10 µl/min flow rate. Furthermore, 100 µg/ml anti-GST antibody in 10 mM sodium acetate, pH 5.0 was injected at 5 µl/min for 900 s and immobilized until 20,000 ~ 25,000 RU. After immobilization the chip was immediately inactivated by injecting 1 M ethanolamine, pH 8.5 at 10 µl/min for 600 s. The chip was kept running in the HBS buffer (GE Healthcare) comprising 10 mM HEPES, pH 8.0, 150 mM NaCl. Of all, 5 µg/ml recombinant GST, GST-HRAS^G12V-GTPγS or GST-HRAS^G12V-GDP proteins were injected into flow cell Fc4, Fc2 and Fc3, respectively for trapping through the immobilized anti-GST antibody. The GST-HRAS^G12V-GTPγS, GST-KRAS^G12V-GppNHpp, or GST-HRAS^G12V-GDP proteins were injected at 5 µl/min for 900 s and usually reached approximately 2000–2500 RU. […]
The corresponding kinetic […], were determined using steady-state analysis of the compounds’ binding affinities, assuming 1:1 ligand-protein stoichiometry. […]

[1] = target: T3, GST-HRAS^G12V-GTPγS-anti-RAS single chain Fv (scFv) (Homo sapiens, UniProt P01112, G12V); experiment: Competitive SPR (cSPR) with anti-RAS scFv bound to HRAS; format: binding; conditions: 3 to 2000 μM range
T3 construct: expression of HRAS (1-166) HRAS^G12V or KRAS^G12V cDNA cloned into the pGEX-2T vector; made in house; host or cells: E. coli C41(DE3)
Experimental: For competitive SPR (cSPR) assays between anti-RAS scFv and candidate fragment binder, after immobilizing anti-GST polyclonal antibody was immobilized on CM5 sensor chip as described above, then 5 µg/ml GST-HRAS-GTPγS protein was injected at 5 µl/min for 900 s to flow cells Fc2 and 4 and 5 µg/ml GST-HRAS-GDP to Fc3. Following GST-HRAS capture on the flow cells, 5 µg/ml anti-RAS scFv Y6-204 was injected at 5 µl/min for 900 s only to Fc4 until reaching an additional 1500–1800 RU, which is theoretically when all GST-HRAS-GTPγS should be bound to anti-RAS scFv with 1:1 interaction stoichiometry. After completing anti-RAS scFv injection, the sensograms were confirmed to be stable (i.e. anti-RAS scFv was not dissociated from GST-HRAS-GTPγS on Fc4). […]

GST-HRAS^G12V-GDP = target: T4, GST-HRAS^G12V-GDP (Homo sapiens, UniProt P01112, G12V); experiment: SPR binding to GDP-bound HRAS; conditions: 3 to 2000 μM range
T4 construct: expression of HRAS (1-166) HRAS^G12V or KRAS^G12V cDNA cloned into the pGEX-2T vector; made in house; host or cells: E. coli C41(DE3)
Experimental: as §1

Solubility = format: physicochemical
RAS-effector PPI = experiment: RAS biosensor BRET assay (partners not specified); format: cell-based, human
Experimental: The BRET assay was carried out as described elsewhere. A total of 650,000 HEK293T were seeded in each well of a six well plate. Approximately, 24 h later, cells were transfected with an appropriated BRET-based RAS biosensor (i.e. RAS-effector) using Lipofectamine 2000 transfection reagent (Thermo-Fisher). Cells were detached 24 h later and washed with PBS and seeded in a white 96 well plate (clear bottom, PerkinElmer, cat#6005181) in OptiMEM no phenol red medium (Life Technologies) complemented with 4% FBS. Cells were left for 4 h at 37 °C before adding compounds. […] The final concentrations in the cells were 0, 5, 10 and 20 μM (therefore the intermediate 10X concentrations were 0, 50, 100 and 200 μM. Furthermore, 10 μl of 10X compounds were added in each well of the 96 well plate to 0, 5, 10 and 20 μM final concentrations (with final 0.2% DMSO each). Quadruplicates were performed for each point. Cells were left for an additional 20 h at 37 °C before the BRET2 signal reading directly after addition of Coelenterazine 400a substrate (10 μM final) to cells (Cayman Chemicals, cat#16157). BRET2 reading was carried out on an Envision instrument (2103 Multilabel Reader, PerkinElmer) with the BRET2 Dual Emission optical module (515 nm ± 30 and 410 nm ± 80; PerkinElmer).

DLD-1 cells (KRAS^G13D) = experiment: Cell viability (CellTiterGlo), DLD-1; format: cell-based, human; conditions: DLD-1, 0–20 μM, up to 72 h
Experimental: (§2) Fig. 5 Abd-7 results on RAS-dependent signalling pathways and cell viability. a, b DLD-1 (a) or H358 (b) cells were serum-starved for 24 h, incubated in mono-layer with Abd-7 in a range from 2, 5, 10 and 20 μM for 3 h and stimulated with EGF 10 min. Proteins were extracted and separated by SDS-PAGE and transferred to membranes for Western analysis with anti-pAKT, anti-pERK, anti-pan AKT and anti-pan ERK. Anti-cyclophilin B antibody was the loading control. Signal was developed using standard ECL. c–e Effects of compounds Abd-2, Abd-4, Abd-5, Abd-6, and Abd-7 on the viability of human cancer cells lines was assessed for a 2-D culture of DLD-1 (mutant KRAS^G13D) cells and HT1080 cells (mutant NRAS^Q61K). The cells were treated with a dose range from 0 μM to 20 μ and incubated for 72 h when cell viability was assessed using CellTitreGlo. […] Each experiment was repeated at least three times (a, b) and four times (c, d). Where error bars are presented, they correspond to mean values ± SD of biological repeats […]
(§3) Cancer cell lines were in seeded in ViewPlates-96 microplates (PerkinElmer). DLD-1 cells were plated at 10,000 cells per well and HT1080 cells at 7500 cells per well and cultured in DMEM, high glucose, GlutaMAX media containing 10% FBS at 37 °C in 5% CO2 atmosphere. Cells were cultured overnight and the compounds (dissolved in DMSO and diluted to 0.2% DMSO) were added to the cells at concentrations ranging from 0 to 20 μM. The cells were incubated under standard culture conditions for either 24, 48 or 72 h. Cell viability was as quantitated using the CellTiterGlo Luminescent Cell Viability Assay (Promega) according to the manufacturer’s instructions to measure ATP generated by metabolically active cells. Luminescent signals were measured using an Envision 2103 Multilabel Microplate Reader (PerkinElmer). The luminescence signals obtained from the compound-treated cells were normalized against the signal for DMSO-only treated cells. The IC50 values, calculated from the 48 and 72 h CellTiterGlo data, were generated by non-linear regression using the software GraphPad Prism 7.00 for windows (GraphPad Inc).
(§4) Supplementary Figure 7: The effect of Abd compounds on the viability of cancer cells The effect of the chemical series on the viability of human cancer cells lines DLD -1 (a colorectal cancer cell line with mutant KRAS
(§5) ) and HT1080 (a fibrosarcoma cell line with
(§6) ). The cells were treated with a dose range from […] of either
(§7) Abd-2, Abd-4, Abd-5, Abd-6 and Abd-7 and incubated for 24 or 48 hours. Cell viability was assessed using CellTitreGlo . In each case, the data are normalized to cells treated with DMSO only. Panels a and b are DLD-1 viability and panels c and d are HT1080 viability.
(§8) The IC50 for Abd-7 at 48 & 72 […]
(§9) hours are shown in panel f. Each experiment was repeated at least four times ( a to d).
(§10) Where error bars are presented, they correspond to mean values ± SD of biological repeats.
(§11) (1 picture or pasted object on this page, not shown here)

HT1080 cells (NRAS^Q61K) = experiment: Cell viability (CellTiterGlo), HT1080; format: cell-based, human; conditions: HT1080, 0–20 μM, up to 72 h
Experimental: as §2, §3, §4, §5, §6, §7, §8, §9, §10, §11

Compound: O=C(NC[C@H]1COc2ccccc2O1)c1ccco1 [Abd-2a]
- binding to KRAS^G12V-GppNHp (SPR) (KRAS^G12V-GppNHp): bind

Compound: O=C(Nc1ccc2ccccc2n1)c1ccco1 [Abd-1, N-(2-quinolinyl)-2-furamide]
- binding to GST-HRAS^G12V-GTPγS (SPR dose response) (GST-HRAS^G12V-GTPγS; 3 to 2000 μM range): bound and bind
- Kd (GST-HRAS^G12V-GTPγS; SPR, estimated, single experimental analysis): > 370 µM
- binding to HRAS^G12V in complex with anti-RAS scFv (cSPR) [1]: no binding
- binding to GDP-bound form of HRAS (SPR) (GST-HRAS^G12V-GDP): no binding
- solubility (Solubility): 140 µM (≈ 33.4 µg/mL)

Compound: O=C(NC[C@@H]1COc2ccccc2O1)c1ccco1 [Abd-2b]
- binding to KRAS^G12V-GppNHp (SPR) (KRAS^G12V-GppNHp): bind

Compound: NCC1COc2cc(Cl)ccc2O1 (centres unmarked) [Abd-3]
- binding to KRAS^G12V-GppNHp (SPR) (KRAS^G12V-GppNHp): lower affinity than Abd-2

Compound: CN(C)CCOc1ccc(C(=O)NCC2COc3ccccc3O2)cc1 (centres unmarked) [Abd-4]
- activity in the RAS biosensor BRET assay (RAS-effector PPI): do not show activity
- effect on cell viability (DLD-1 cells (KRAS^G13D)): no effect on cell viability
- effect on cell viability (HT1080 cells (NRAS^Q61K)): no effect on cell viability

— publication PMC6085350, “Small molecule inhibitors of RAS-effector protein interactions derived using an intracellular antibody fragment” (Nature Communications, 2018)
